Literature values in US20050196418A1, “Bioavailability and improved delivery of alkaline pharmaceutical drugs” (priority 2004, published 2005).

Settings: free base; due to air oxidation

Clc1ccccc1C(c1ccccc1)(c1ccccc1)n1ccnc1 [Clotrimazole]
chemical stability in a solution or formulation for shelf storage: chemically unstable
